Drawing on patent US20140045873A1, “NOVEL MICROBIOCIDES” (SYNGENTA PARTICIPATIONS AG, priority 2010, published 2014), this text covers inhibition, melting point and pest or weed control for one compound.

Each structure is given as a SMILES string. Where two headings read alike, the source gives them in different places.

A word on the inhibition: it is the change of the read-out against control, counted positive when it falls. For orientation: melting point means the temperature, or range, at which the solid turns liquid.

For series [1], the system named is Glomerella lagenarium (Colletotrichum lagenarium). Put plainly: Glomerella lagenarium (Colletotrichum lagenarium) / liquid culture (anthracnose). The class given is cell-based. Particulars: Colletotrichum orbiculare; 200 ppm, liquid culture, PDB, 24° C., 3-4 days after application; read-out: control of Glomerella lagenarium (inhibition of growth, photometric).
The subject of series [2] is Mycosphaerella arachidis (Cercospora arachidicola). Description: Mycosphaerella arachidis (Cercospora arachidicola) / liquid culture (early leaf spot). It is filed as cell-based. The conditions noted are these: 200 ppm, liquid culture, PDB, 24° C., 4-5 days after application, read-out: control of Mycosphaerella arachidis (inhibition of growth, photometric).
Series [3] deals with Mycosphaerella graminicola (Septoria tritici). Put plainly: Mycosphaerella graminicola (Septoria tritici) / liquid culture (Septoria blotch). It is filed as cell-based. The conditions noted are these: Zymoseptoria tritici; 200 ppm, liquid culture, PDB, 24° C., 4-5 days after application; read-out: control of Mycosphaerella graminicola (inhibition of growth, photometric).
The test system of a further series is Gaeumannomyces graminis. Description: Gaeumannomyces graminis / liquid culture (take-all of cereals). The conditions noted are these: 200 ppm, liquid culture, PDB, 24° C., 4-5 days after application, read-out: control of Gaeumannomyces graminis (inhibition of growth, photometric). The class given is cell-based.
Series [4] deals with Monographella nivalis (Microdochium nivale). Put plainly: Monographella nivalis (Microdochium nivale) / liquid culture (foot rot cereals). The class given is cell-based. Particulars: PDB, 24° C., 4-5 days after application, read-out: control of Monographella nivalis (inhibition of growth, photometric).
Another series has as its system Pythium ultimum. Description: Pythium ultimum / liquid culture (seedling damping off). The class given is cell-based. The conditions noted are these: Globisporangium ultimum, potato dextrose broth, 24° C., 2-3 days after application, read-out: control of Pythium ultimum (inhibition of growth, photometric).
The subject of another series is Pyrenophora teres. Particulars: in Hordeum vulgare, foliar, read-out: control of Pyrenophora teres (disease control compared to untreated).
For series [5], the system named is Puccinia recondita f. sp. tritici. The conditions noted are these: in Triticum aestivum, foliar, read-out: control of Puccinia recondita f. sp. tritici (percent disease control compared to untreated).
Series [6] has the same test system. Particulars: in Triticum aestivum, foliar, read-out: control of Puccinia recondita f. sp. tritici (percent disease control compared to untreated). This is another data set of the same source.
Series [7] deals with Thanatephorus cucumeris (Rhizoctonia solani). The conditions noted are these: read-out: control of Thanatephorus cucumeris (inhibition of growth, photometric).
Series [8] deals with Phaeosphaeria nodorum (Septoria nodorum). Particulars: Parastagonospora nodorum, in Triticum aestivum, foliar, read-out: control of Phaeosphaeria nodorum (percent disease control compared to untreated).

With `CSc1cc(C)nc(-c2cccc(CCCO/N=C(\C)c3cccc(C)n3)n2)c1` [P.17], the melting point lay in the range of 76 to 77 °C. The inhibition at 200 ppm in series [1] is ≥ 80%. Further, the inhibition at 200 ppm in series [2] is ≥ 80%. Besides, the inhibition at 200 ppm in [3] was ≥ 80%. In addition, the inhibition at 200 ppm in the series with Gaeumannomyces graminis was ≥ 80%. In addition, in series [4], the inhibition at 200 ppm was ≥ 80%. Besides, the inhibition at 200 ppm in the series with Pythium ultimum was ≥ 80%. In addition, in the series on Pyrenophora teres, the pest or weed control at 200 ppm was ≥ 80%. Besides, the pest or weed control at 200 ppm in [5] is ≥ 80%. Besides, the pest or weed control at 200 ppm in series [6] was ≥ 80%. For the same compound, the inhibition at 200 ppm in series [7] is ≥ 80%. In addition, the pest or weed control at 200 ppm in [8] is ≥ 80%.
